Measured values reported in patent publication US20240277729A1, “METHODS OF TREATMENT AND PHARMACEUTICAL COMPOSITIONS USING AN SGLT-2 INHIBITOR AND A NEUROLEPTIC AGENT” (Boehringer Ingelheim International GmbH, priority 2011, published 2024).
Entries after “also recorded” stand apart in the source; their conditions may differ.

Key:
Female Wistar rats = conditions: neuroleptic alone; olanzapine 8 mg/kg sc, clozapine 8 mg/kg sc, haloperidol 4 mg/kg ip; oral glucose load 2 g/kg; FIG. 1A
Description: Female Wistar rats (weight range 250-300 g upon arrival) are obtained from Janvier (Le Genest Saint Isle-France, France) and housed in pairs or three together at a temperature of 21±4° C. and 55±20% humidity. The animals are maintained on a reverse phase light-dark cycle (lights off for 8 h from 09.30-17.30 h) during which time the room is illuminated by red light. The animals are housed and have free access to a fat diet and tap water until the night before the oral glucose tolerance test (OGTT) experiment.
An oral glucose tolerance test is performed in overnight fasted animals. A pre-dose blood sample (t0-90 min) is obtained by tail bleed. Blood glucose is measured with a glucometer, and the animals are randomized for blood glucose (n=8/group). Subsequently, the groups receive a single oral administration of either vehicle or a neuroleptic agent in the presence or absence of an SGLT-2 inhibitor. The animals receive an oral glucose load (2 g/kg) 60 min after compound administration. Blood glucose is measured in tail blood 15 min, 30 min, 60 min, 120 min, and 180 min after the glucose challenge. Glucose excursion is quantified by calculating the reactive glucose AUC. The data are presented as mean±SEM.

[1] = metformin on its own, in the diabetic; cited from earlier work

Compound | glucose tolerance in OGTT (Female Wistar rats) | average improvement in the HbA1c value [1]
CN1CCN(C2=Nc3cc(Cl)ccc3Nc3ccccc32)CC1 [Clozapine, 8-chloro-11-(4-methylpiperazin-1-yl)-5H-dibenzo[b,e][1,4]diazepine] | impaired glucose tolerance | –
CN(C)C(=N)N=C(N)N [metformin] | – | 1.0-1.5%
O=C(CCCN1CCC(O)(c2ccc(Cl)cc2)CC1)c1ccc(F)cc1 [haloperidol, 4-[4-(4-chlorophenyl)-4-hydroxy-1-piperidyl]-1-(4-fluorophenyl)-butan-1-one] | impaired glucose tolerance; also recorded: worsening of the OGTT was less pronounced | –
